Reference: patent US20090317457A1, “ANTI-INFLAMMATORY AND WOUND HEALING EFFECTS OF LYMPHOID THYMOSIN B-4” (Yale University, priority 2002, published 2009)
“And” between values parts separate entries of the source, which are not always exact repeats. Equal values may be shown once.

How the values were obtained:
[1] = test system: TPA-induced irritant contact dermatitis of ear skin; test: TPA irritant contact dermatitis (ICD) ear swelling assay; type: in vivo, BALB/c and FVB mice; settings: for ear swelling: 6 h, unit not given; for TPA Ear Thickness (+/− SE): increase over baseline
Procedure: Experimental groups of 8-10 female BALB/c and FVB mice, 8-10 weeks of age, were housed in temperature controlled rooms and given food and water ad libitum. Observations and measurements were made by an investigator blinded to the experimental group.
After measuring the baseline ear thickness, naïve mice were injected intraperitoneally (IP) with either 100 μl of PBS, or 100 μl of 3.50×10^−5 M peptide solution (oxidized mTβ4 (“mTβ4-so”), or oxidized mLTβ4 (“mLTβ4-so”) [n=10 per group]). 30 minutes later, mice were injected intradermally with 40 μl of either PBS or 8.75×10^−5 M solution of the appropriate peptide in both ears. One minute later, 40 nmol TPA (in 10 μl acetone) was applied to the anterior side of each ear. 6 h. and 24 h. after the topical application of TPA, the ears were re-measured, and the increases in ear thickness between baseline and 6 h. and between baseline and 24 h. calculated. For each mouse, increases in right and left ear thickness were averaged.
Statistics. Groups were compared for differences in the meaning using a one-tailed Student's t test; p<0.05 was considered statistically significant.

[2] = test system: DNFB-induced allergic contact dermatitis of ear skin; test: DNFB allergic contact dermatitis (ACD) ear swelling assay; type: in vivo, FVB mice; settings: for ear thickness: unit not given
Procedure: Experimental groups of 8-10 female FVB mice, 8-10 weeks of age, were housed in temperature controlled rooms and given food and water ad libitum. Observations and measurements were made by an investigator blinded to the experimental group. Mice were sensitized on day 0 by epicutaneous application to razor-shaved abdominal skin of 25 μl of 0.5% DNFB in a mixture of acetone:olive oil (4:1). Before the challenge with DNFB, mice were injected (i) intraperitoneally with 100 μl of 3.50×10^−5 M thymosin peptide solution (30 minutes before DNFB) and (ii) intradermally with 40 μl of 8.75×10^−5 M peptide solution in both ears (1 min prior to DNFB challenge). On day 5, after measuring baseline ear thickness with an engineer's micrometer, mice were challenged by applying 10 μl of 0.2% DNFB in acetone:olive oil to each side of each ear. Ears were re-measured 6 h., 24 h., and 48 h. after challenge, and data expressed as the response above baseline (i.e., ear thickness 24 h. after challenge minus ear thickness immediately prior to challenge)±1 standard error of the mean (S.E.). For each mouse, increases in right and left ear thickness were averaged. The experiment was repeated twice. Statistics. Groups were compared for differences in the meaning using a one-tailed Student's t test; p<0.05 was considered statistically significant.

[3] = test system: λ-carrageenan induced neutrophil mediated inflammation of the footpad; test: λ-carrageenan-induced footpad inflammation (footpad swelling); type: in vivo, BALB/c mice; settings: for Footpad Thickness (+/− SE): oxidised peptide
Procedure: Experimental groups of 8-10 female BALB/c mice, 8-10 weeks of age, were housed in temperature controlled rooms and given food and water ad libitum. Observations and measurements were made by an investigator blinded to the experimental group. λ-Carrageenan injection. After measuring the baseline thickness of the hind footpads with a spring-loaded engineer's micrometer, mice were injected subcutaneously in both hind paws with 340 μg of λ-carrageenan in 40 μl. 6 h., 24 h., and 48 h. after the injection of λ-carrageenan, footpads were re-measured and swelling calculated by subtracting the baseline from the experimental measurements. For each mouse, increases in right and left footpad thickness were averaged. Thymosin peptides were injected as previously described [reference 8]: (i) intraperitoneally with 100 μl of 3.50×10^−5 M peptide solution, 30 minutes before footpad injection; (ii) intradermally into the footpad with 40 μl of 8.75×10^−5 M peptide solution and λ-carrageenan at time 0, and (iii) intraperitoneally with 100 μl of 3.50×10^−5 M peptide solution, 6 h. after footpad injection. For each group, the mean increase in footpad thickness was calculated, and compared to other groups using a one-tailed Student's t-test. The experiment was repeated four times. Statistics. Groups were compared for differences in the meaning using a one-tailed Student's t test; p<0.05 was considered statistically significant.

[4] = test system: human umbilical vein endothelial cells (HUVEC); test: Endothelial scratch wound assay; type: cell-based; settings: for % Closure (+/− SE %): 2.0×10^-7 M peptide, ECGS 200 μg
Description: The endothelial “scratch wound assay” was utilised to test the effects of mUTβ4 and mLTβ4 on the migration of endothelial cells in vitro, as described in […] et al. (1997) Thymosin beta 4 accelerates wound healing. J Invest Dermatol. 1999 September; 113(3):364-8 and Young et al., (1999) Thymosin b 4 sulfoxide is an anti-inflammatory agent generated by monocytes in the presence of glucocorticoids. Nature Medicine. 5:1424-1427. HUVECs were obtained from the Endothelial Cell Culture Core Laboratory of the Yale Skin Diseases Research Core Center (Dr. M. Kluger). Passage 3 was used, and plated at a density of 9.5×10^4 cells per well. Cells were grown to 90% confluence in 24 well plates (Corning/Costar), in M-199 media supplemented with 20% FBS, antibiotics, and endothelial cell growth supplement (ECGS). A scratch was made along the diameter of each well with a sterile blue 1 ml pipette tip (Falcon). Cells were then rinsed in MEM buffer. Thymosin peptide was added to the cells in media lacking ECGS but containing 10 mM thymidine to inhibit cell proliferation. In the experimental groups, HUVECs were given 2.0×10^-7 M peptide solution of mUTb4, or in LTb4. Control groups consisted of saline (negative control) and 200 mg of ECGS (positive control). The plates were incubated at 37° C., fixed in 2% paraformaldehyde, and stained with crystal violet at time points 9 h. and 24 h. The scratch width was measured using a microscope with a 4× objective lens connected to a digital camera and then analyzed using Scion Image 1.62 software. The percent closure of the 9 h. and 24 h. measurements was calculated by dividing by the original wound width at time zero in square pixels. For each group, the mean percent closure was calculated, based on 4 images per well, 4 wells per group.

## N-MSDKPDMAEIEKFDKSKLKKTETQEINPL-PSIETIEQEKQAGES-C (SEQ ID NO:2) [mUTβ4]
[1]
  ear swelling: 24.10±1.83
[1]; 6 h post-application of TPA
  suppression of inflammation relative to PBS-treated controls: 21%
[1]; 24 h post-application of TPA
  suppression of inflammation relative to PBS-treated controls: 13%
[1]; six hours after TPA, listed as mTβ4
  TPA Ear Thickness (+/− SE): 24.10 ± 1.83 mm and 18.00 ± 1.58 mm
[1]; twenty-four hours after TPA, listed as mTβ4-so
  TPA Ear Thickness (+/− SE): 19.00 ± 1.83 mm and 16.75 ± 1.79 mm
[2]; 72 h
  suppression of ACD ear swelling response relative to PBS: 29%
[2]; Methionated Thymosin Experiment, forty-eight hours after challenge, listed as mTβ4-so
  DNFB Ear Thickness (+/− SE): 18.39 ± 1.67 mm and 15.11 ± 0.37 mm
[2]; Methionated Thymosin Experiment, six hours after challenge, listed as mTβ4-so
  DNFB Ear Thickness (+/− SE): 5.18 ± 0.78 mm and 4.39 ± 1.08 mm
[2]; Methionated Thymosin Experiment, twenty-four hours after challenge, listed as mTβ4-so
  DNFB Ear Thickness (+/− SE): 20.25 ± 1.54 mm and 16.75 ± 0.48 mm
[3]; 6 h
  suppression of footpad inflammation relative to PBS: 29%
[3]; 24 h
  suppression of footpad inflammation relative to PBS: 45%
[3]; 48 h
  suppression of footpad inflammation relative to PBS: 38%
[3]; Methionated Thymosin Experiment (B), forty-eight hours after λ-carrageenan, listed as mTβ4-so
  Footpad Thickness (+/− SE): 0.51 ± 0.02 mm and 0.55 ± 0.03 mm
[3]; Methionated Thymosin Experiment (B), six hours after λ-carrageenan, listed as mTβ4-so
  Footpad Thickness (+/− SE): 0.36 ± 0.06 mm and 0.51 ± 0.05 mm
[3]; Methionated Thymosin Experiment (B), twenty-four hours after λ-carrageenan, listed as mTβ4-so
  Footpad Thickness (+/− SE): 0.38 ± 0.01 mm and 0.28 ± 0.04 mm
[4]; nine hours, listed as mTβ4
  % Closure (+/− SE %): 24% and 24.0 ± 1.1%
[4]; twenty-four hours, listed as mTβ4
  % Closure (+/− SE %): 21% and 21.0 ± 1.5%
[4]; twenty-four hours, listed as mTβ4-so
  % Closure (+/− SE %): 21.0±1.5%

## N-LLPATMSDKPDMAEIEKFDKSKLKKTE-TQEKNPLPSKETIEQEKQAGES-C (SEQ ID NO:8) (LLPATMSDKPDMAEIEKFDKSKLKKTETQEKNPLPSKETIEQEKQAGES; listed as Homo sapiens) [LTβ4, lymphoid thymosin-β4 polypeptide, un-methionated form, chemically synthesised]
[2]; 6 h
  suppression of ACD ear swelling response relative to PBS: 17%
[2]; 6 h, 24 h and 72 h after challenge
  ear swelling response compared to mice receiving PBS or UTβ4 (FIG. 4A): significant reduction in ear swelling response
[2]; 24 h
  suppression of ACD ear swelling response relative to PBS: 21%
[2]; 72 h
  suppression of ACD ear swelling response relative to PBS: 24%
[2]; Un-Methionated Thymosin Experiment, forty-eight hours after challenge
  DNFB Ear Thickness (+/− SE): 15.45 ± 0.91 .01 mm
[2]; Un-Methionated Thymosin Experiment, six hours after challenge
  DNFB Ear Thickness (+/− SE): 7.83 ± 0.61 .01 mm
[2]; Un-Methionated Thymosin Experiment, twenty-four hours after challenge
  DNFB Ear Thickness (+/− SE): 18.98 ± 0.74 .01 mm
[2]; seventy-two hours
  thinner ears than uTβ4-so treated mice: 22%
  ear thickness: 15.45±0.91
[2]; six hours
  thinner ears than uTβ4-so treated mice: 21%
  ear thickness: 7.83±0.61
[2]; twenty-four hours
  thinner ears than uTβ4-so treated mice: 16%
  ear thickness: 18.98±0.74
[3]; 6 h
  suppression of footpad inflammation relative to PBS: 21%
[3]; 24 h
  footpad swelling compared with mice receiving PBS or UTβ4 (FIG. 2A): significantly reduced footpad swelling
  suppression of footpad inflammation relative to PBS: 58%
[3]; 24 h, unit not given
  footpad thickness: 0.22±0.03
[3]; 48 h
  suppression of footpad inflammation relative to PBS: 42%
[3]; Un-Methionated Thymosin Experiment (A), forty-eight hours after λ-carrageenan
  Footpad Thickness (+/− SE): 0.34 ± 0.04 mm
[3]; Un-Methionated Thymosin Experiment (A), six hours after λ-carrageenan, increase over baseline
  Footpad Thickness (+/− SE): 0.47 ± 0.04 mm
[3]; Un-Methionated Thymosin Experiment (A), twenty-four hours after λ-carrageenan
  Footpad Thickness (+/− SE): 0.22 ± 0.03 mm

## N-MLLPATMSDKPDMAEIEIFDKSKILITE-TQEKNPLPSKETIEQEKQAGES-C (SEQ ID NO:9) (MLLPATMSDKPDMAEIEKFDKSKLKKTETQEKNPLPSKETIEQEKQAGES; listed as Homo sapiens) [mLTβ4, N-terminal methionated lymphoid thymosin-β4, chemically synthesised]
[1]
  ear swelling: 18.00±1.58
[1]; 6 h post-application of TPA
  suppression of inflammation relative to PBS-treated controls: 41%
[1]; 24 h post-application of TPA
  suppression of inflammation relative to PBS-treated controls: 24%
[1]; vs PBS at 6 h and 24 h, vs mUTβ4 at 6 h
  suppression of TPA-induced ear swelling (FIG. 3): significantly more than PBS
[2]; 6 h
  suppression of ACD ear swelling response relative to PBS: 37%
[2]; 24 h
  suppression of ACD ear swelling response relative to PBS: 27%
[2]; 24 h and 72 h
  ear swelling response relative to mice that received PBS or mUTβ4 (FIG. 4B): significant reduction in ear swelling response
[2]; 72 h
  suppression of ACD ear swelling response relative to PBS: 42%
[3]; 6 h
  suppression of footpad inflammation relative to PBS: 50%
[3]; 6 h and 24 h
  footpad swelling compared with mice receiving PBS or mUTβ4 (FIG. 2B): significantly reduced footpad swelling
[3]; 24 h
  suppression of footpad inflammation relative to PBS: 59%
[3]; 48 h
  suppression of footpad inflammation relative to PBS: 34%
[4]; nine hours
  % Closure (+/− SE %): 27.2 ± 1.6%
[4]; nine hours, listed as mLβ
  % Closure (+/− SE %): 27.2%
[4]; twenty four hours
  more closure than mTβ4-so: 15.3%
[4]; twenty-four hours
  % Closure (+/− SE %): 37.3 ± 4.4%
[4]; twenty-four hours, listed as mLβ
  % Closure (+/− SE %): 37.3%
[4]; vs PBS at 9 h and 24 h, vs mUTβ4 at 24 h
  effect on migration of HUVEC to close an artificial wound (FIG. 5): significantly greater than PBS
